Blank lines part the entries; values can stand above or below the compound they belong to.
Legend:
AmGSTF1 [1] = test: CDNB assay: inhibition of AmGSTF1-catalysed glutathionylation of CDNB; type: biochemical, Alopecurus myosuroides; details: for CDNB Assay % Inhibition: three replicate measurements
AmGSTF1 [2] = test: Thermal shift assay; type: binding, Alopecurus myosuroides; details: difference in melting temperature compared to no ligand
[3] = test system: HS black-grass (Rothamsted); test: Petri-dish seedling assay with pendimethalin; type: in vivo, Alopecurus myosuroides
MHR black-grass (Peldon) = test: Petri-dish seedling assay with pendimethalin; type: in vivo, Alopecurus myosuroides; details: for Percentage of normal shoot 14 d after treatment: Peldon-MHR
MHR black-grass plants = test: Spray assay on three-leaf stage plants with pendimethalin; type: in vivo, Alopecurus myosuroides; details: three-leaf stage (BBCH 13); 70 μM compound 55, 24 h prior to spray with 35 μM pendimethalin
AtGSTF8 = test: CDNB assay on AtGSTF8 (selectivity); type: biochemical, A. thaliana
Procedure: Having established flavonoids as AmGSTF1 ligands with the potential to reverse the MHR phenotype, the scope for optimising their activity, selectivity, and physicochemical profile using synthetic modifications was explored. Using 5,7-dihydroxyflavone (chrysin, 2) as precursor (Fig. 3a), the synthesis of flavonoid derivatives with simple A-ring modifications were undertaken. Each compound was then assessed for its binding to the protein target using both thermal shift assays and by the inhibition of enzyme activity toward CDNB (Table S4 ^‡). The 2-methylchromen-4-one derivative 12 (Table S4; ^‡ entry 11) was synthesised to assess the effect of replacement of the aryl ring at the 2-position (B-ring) with a smaller group. […] Alternative 2-substituents, including amides 16, cyclic amines 17 and (hetero)arenes 18, each introduced from the corresponding carboxylic acid 13, thioether 14 and chloride 15 using standard acylation, SNAr and Pd-catalysed cross-coupling reactions (Fig. 3b). […] However, for these compounds, the assessment of activity was difficult due to their low solubility in aqueous solutions. […] To confirm if the binding observed with these synthetic analogues was specific to AmGSTF1, as determined by the inhibition of CDNB activity, the effect of this flavonoid series on an alternative well described phi class GST from A. thaliana (AtGSTF8), was investigated. […]

[4] = Aqueous solubility (qualitative); type: physicochemical
AmGSTF1 [5] = test: Ligand fishing with strep-tagged AmGSTF1 immobilised on StrepTactin column; type: binding, Alopecurus myosuroides; details: ligand cocktail, each at 100 µM
[6] = test system: MHR in black-grass plants; test: Preliminary spray trial with pinoxaden; type: in vivo, Alopecurus myosuroides; details: black-grass plants exposed to the herbicide pinoxaden
wheat = test: Preliminary spray trial, companion crop phytotoxicity; type: in vivo
wildtype AmGSTF1 = type: biochemical, Alopecurus myosuroides; details: 100 µM, 60 min at 20 °C, diluted 1:100, activity towards CDNB
AmGSTF1 [7] = test: Isothermal titration calorimetry; type: binding, Alopecurus myosuroides
Procedure: Coot and reciprocal space refinement using Refmac. Further experimental detail is summarised in
Molecular docking was performed using the GOLD package with CHEMPLP as the target fitness function
12. The structure of the AmGSTF1 in the tetragonal unit cell with both loops in their closed conformation
was used as a starting model for docking. The ligand (GS-NBF) was removed from the binding site. The
search space was defined by the position of the ligand in the cavity with a margin of 10 and 15 Å,
respectively. The ligands were built with Avogadro [XX]. In each case, the starting geometry minimized
using the MMFF94 forcefield [xx]. Each ligand was docked with 30 independent genetic algorithm using
the diverse solution settings in order to explore a maximum parameter space.
Isothermal Titration Calorimetry
AmGSTF1 was dialysed into HEPES buffer (pH 7.6) overnight at 3 °C and the concentration adjusted to
10 µM in a volume of 3 mL. The activity of the enzyme was calculated prior to use according to the
standard CDNB biochemical assay. A solution of the desired ligand (≥ 10 x protein concentration, 200
µL) was prepared in the same HEPES buffer as above. All samples were degassed for 5 minutes prior to
use using a thermovac at 24 °C. AmGSTF1 was incubated in the cell and the ligand in the syringe, […]
experiment run to completion or until no more titrant was available. The data obtained was analysed […]

[8] = 70 uM compound 55 for 24 h prior to 5 ppm pendimethalin

Solubility in aqueous solutions (in words) [4]: sufficient soluble
SMILES: CCCCCCCCCCC(Oc1cc(O)cc2oc(-c3ccc(O)c(O)c3)c(O)c(=O)c12)C(=O)O (stereo not shown) [compound 55]
Inhibitory activity toward AmGSTF1 in the CDNB assay (in words) (AmGSTF1 [1]): excellent inhibitory activity | CDNB Assay % Inhibition (AmGSTF1 [1]; 1 µM compound): 70% | CDNB Assay % Inhibition (AmGSTF1 [1]; 10 µM compound): 96% | CDNB Assay % Inhibition (AmGSTF1 [1]; 100 µM compound): 100% | Thermal Shift Assay ∆Tm (AmGSTF1 [2]; 1 µM): 0.20 | Thermal Shift Assay ∆Tm (AmGSTF1 [2]; 10 µM): 2.17 | Thermal Shift Assay ∆Tm (AmGSTF1 [2]; 100 µM): 1.10 | Percentage of normal shoot 14 d after treatment [3, 8]: 50% | Resistance to pendimethalin in MHR seedlings (MHR black-grass (Peldon); 70 μM compound 55, 24 h prior to 5 ppm pendimethalin, compared to untreated seedlings): reduced | Percentage of normal shoot 14 d after treatment (MHR black-grass (Peldon); [8]): 66% | Pendimethalin resistance in established MHR plants (MHR black-grass plants): reversed pendimethalin resistance | Selectivity toward AmGSTF1 as compared to AtGSTF8 (AtGSTF8): good selectivity

SMILES: CCC(CC)Nc1c([N+](=O)[O-])cc(C)c(C)c1[N+](=O)[O-] [Pendimethalin, pendimethalin, reference compound]
Percentage of normal shoot 14 d after treatment ([3]; 5 ppm pendimethalin alone): 52% | Percentage of normal shoot 14 d after treatment (MHR black-grass (Peldon); 5 ppm pendimethalin alone): 82%

SMILES: O=c1cc(-c2ccc(O)cc2)oc2cc(O)cc(O)c12 [compound 1, apigenin]
CDNB Assay % Inhibition (AmGSTF1 [1]; 10 µM compound): 71% | CDNB Assay % Inhibition (AmGSTF1 [1]; 100 µM compound): 87% | Binding/retention by immobilised AmGSTF1 (AmGSTF1 [5]): selectively retained and bound | Synergistic effect counteracting MHR [6]: clear synergistic effect | Phytotoxic effect in companion crop (wheat): no adverse phytotoxic effect

Solubility in aqueous solutions (in words) [4]: increased solubility
SMILES: COc1cc(OC)c2c(=O)cc(-c3nccs3)oc2c1 [compound 23]
CDNB Assay % Inhibition (AmGSTF1 [1]; 10 µM compound): 23% | CDNB Assay % Inhibition (AmGSTF1 [1]; 100 µM compound): 83% | Thermal Shift Assay ∆Tm (AmGSTF1 [2]; 1 µM): -0.40 | Thermal Shift Assay ∆Tm (AmGSTF1 [2]; 10 µM): -0.47 | Thermal Shift Assay ∆Tm (AmGSTF1 [2]; 100 µM): -0.50

SMILES: COc1cc(OC)c2c(=O)cc(-c3ccc4c(c3)OCO4)oc2c1 [18h]
CDNB Assay % Inhibition (AmGSTF1 [1]; 10 µM compound): 12% | CDNB Assay % Inhibition (AmGSTF1 [1]; 100 µM compound): 33% | Thermal Shift Assay ∆Tm (AmGSTF1 [2]; 1 µM): 0.27 | Thermal Shift Assay ∆Tm (AmGSTF1 [2]; 10 µM): 0.17 | Thermal Shift Assay ∆Tm (AmGSTF1 [2]; 100 µM): 0.33

SMILES: COc1cc(OC)c2c(=O)cc(-c3ccc(F)cc3)oc2c1 [18b]
CDNB Assay % Inhibition (AmGSTF1 [1]; 10 µM compound): 23% | CDNB Assay % Inhibition (AmGSTF1 [1]; 100 µM compound): 78% | Thermal Shift Assay ∆Tm (AmGSTF1 [2]; 1 µM): 0.17 | Thermal Shift Assay ∆Tm (AmGSTF1 [2]; 10 µM): 0.33 | Thermal Shift Assay ∆Tm (AmGSTF1 [2]; 100 µM): 0.27

SMILES: COc1cc(OC)c2c(=O)cc(-c3cccc(S(C)(=O)=O)c3)oc2c1 [18k]
CDNB Assay % Inhibition (AmGSTF1 [1]; 10 µM compound): 11% | CDNB Assay % Inhibition (AmGSTF1 [1]; 100 µM compound): 60% | Thermal Shift Assay ∆Tm (AmGSTF1 [2]; 1 µM): 0.20 | Thermal Shift Assay ∆Tm (AmGSTF1 [2]; 10 µM): 0.10 | Thermal Shift Assay ∆Tm (AmGSTF1 [2]; 100 µM): 0.30

SMILES: COc1cc(OC)c2c(=O)cc(N3CCCCC3)oc2c1 [17c]
CDNB Assay % Inhibition (AmGSTF1 [1]; 10 µM compound): 12% | CDNB Assay % Inhibition (AmGSTF1 [1]; 100 µM compound): 67% | Thermal Shift Assay ∆Tm (AmGSTF1 [2]; 1 µM): 0.23 | Thermal Shift Assay ∆Tm (AmGSTF1 [2]; 10 µM): 0.13 | Thermal Shift Assay ∆Tm (AmGSTF1 [2]; 100 µM): 0.30

SMILES: CCCCCCCCCC(Oc1cc(OC)cc2oc(-c3ccccc3)cc(=O)c12)C(=O)O (stereo not shown) [compound 44]
CDNB Assay % Inhibition (AmGSTF1 [1]; 1 µM compound): 58% | CDNB Assay % Inhibition (AmGSTF1 [1]; 10 µM compound): 97% | Thermal Shift Assay ∆Tm (AmGSTF1 [2]; 1 µM): 0.40 | Thermal Shift Assay ∆Tm (AmGSTF1 [2]; 10 µM): 0.70 | Thermal Shift Assay ∆Tm (AmGSTF1 [2]; 100 µM): 0.90

SMILES: CCCCCCCC(Oc1cc(OC)cc2oc(-c3ccccc3)cc(=O)c12)C(=O)O (stereo not shown) [compound 43]
CDNB Assay % Inhibition (AmGSTF1 [1]; 1 µM compound): 40% | CDNB Assay % Inhibition (AmGSTF1 [1]; 10 µM compound): 86% | Thermal Shift Assay ∆Tm (AmGSTF1 [2]; 1 µM): 0.27 | Thermal Shift Assay ∆Tm (AmGSTF1 [2]; 10 µM): 0.70 | Thermal Shift Assay ∆Tm (AmGSTF1 [2]; 100 µM): 2.93

Binding to AmGSTF1 by ITC (AmGSTF1 [7]): binding to AmGSTF1 confirmed
SMILES: NC(CCC(=O)NC(CSc1ccc([N+](=O)[O-])c2nonc12)C(=O)NCC(=O)O)C(=O)O (stereo not shown) [NBD-SG]
Inhibition vs. DMSO control (wildtype AmGSTF1): 43% | Mean specific activity (wildtype AmGSTF1; mean ± SD, n = 3): 11.2 ± 1.1 nmol s-1 mg-1 protein

SMILES: COc1cc(OC)c2c(=O)cc(-c3ccn(C)n3)oc2c1 [compound 26]
CDNB Assay % Inhibition (AmGSTF1 [1]; 10 µM compound): 19% | CDNB Assay % Inhibition (AmGSTF1 [1]; 100 µM compound): 64% | Thermal Shift Assay ∆Tm (AmGSTF1 [2]; 1 µM): 0 | Thermal Shift Assay ∆Tm (AmGSTF1 [2]; 10 µM): -0.03 | Thermal Shift Assay ∆Tm (AmGSTF1 [2]; 100 µM): -0.17

SMILES: O=c1c(O)c(-c2ccc(O)c(O)c2)oc2cc(O)cc(O)c12 [compound 3, quercetin, reference compound]
CDNB Assay % Inhibition (AmGSTF1 [1]; 10 µM compound): 44% | CDNB Assay % Inhibition (AmGSTF1 [1]; 100 µM compound): 94% | Solubility in aqueous solutions (in words) [4]: high solubility

SMILES: COc1cc(OC)c2c(=O)cc(-c3cccc(-c4ccccc4)c3)oc2c1 [18d]
CDNB Assay % Inhibition (AmGSTF1 [1]; 10 µM compound): 12% | CDNB Assay % Inhibition (AmGSTF1 [1]; 100 µM compound): 87% | Thermal Shift Assay ∆Tm (AmGSTF1 [2]; 1 µM): 0.13 | Thermal Shift Assay ∆Tm (AmGSTF1 [2]; 10 µM): 0.13 | Thermal Shift Assay ∆Tm (AmGSTF1 [2]; 100 µM): -0.1

SMILES: COc1cc(OC)c2c(=O)cc(-c3ncco3)oc2c1 [compound 20]
CDNB Assay % Inhibition (AmGSTF1 [1]; 10 µM compound): 11% | CDNB Assay % Inhibition (AmGSTF1 [1]; 100 µM compound): 64% | Thermal Shift Assay ∆Tm (AmGSTF1 [2]; 1 µM): -0.10 | Thermal Shift Assay ∆Tm (AmGSTF1 [2]; 10 µM): -0.17 | Thermal Shift Assay ∆Tm (AmGSTF1 [2]; 100 µM): -0.23

SMILES: COc1cc(OC)c2c(=O)cc(NCCCO)oc2c1 [17d]
CDNB Assay % Inhibition (AmGSTF1 [1]; 100 µM compound): 12% | Thermal Shift Assay ∆Tm (AmGSTF1 [2]; 1 µM): 0.23 | Thermal Shift Assay ∆Tm (AmGSTF1 [2]; 10 µM): 0.17 | Thermal Shift Assay ∆Tm (AmGSTF1 [2]; 100 µM): 0.07

SMILES: O=c1cc(-c2ccccc2)oc2ccc(O)cc12 [compound 4, reference compound]
CDNB Assay % Inhibition (AmGSTF1 [1]; 100 µM compound): 61% | Thermal Shift Assay ∆Tm (AmGSTF1 [2]; 1 µM): 0.4 | Thermal Shift Assay ∆Tm (AmGSTF1 [2]; 10 µM): 0.0 | Thermal Shift Assay ∆Tm (AmGSTF1 [2]; 100 µM): -0.2

Reference: PMC8564858, “Flavonoid-based inhibitors of the Phi-class glutathione transferase from black-grass to combat multiple herbicide resistance” (Organic & Biomolecular Chemistry, 2021)
